Experimental data published in patent publication US6867207B2, “IL-5 inhibiting 6-azauracil derivatives” (Janssen Pharmaceutica N.V., priority 1997, dated 2005).

Tests used:
IL-5 production = experiment: In vitro inhibition of IL-5 production in human blood (phytohemagglutinin-stimulated whole blood, ELISA);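 as to all read-outs here: values marked with an asterisk were tested at 10 µM and unmarked values at 1 µM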; assay type: cell-based; conditions: test dose 1×10^−6 M, 48 hours; for inhibition at 1 µM: read-out: % inh. (percentage inhibition of IL-5 production)
How it was run: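 Percent inhibition of IL-5, quantified by ELISA in cell-free supernatants, is given at a single dose of 1×10^−6 M (or 1×10^−5 M). Threefold-diluted human whole blood from healthy men received compound for 60 min at 37° C before 48 h PHA stimulation at 2 μg/mL.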

melting point | Compound | inhibition at 1 µM (IL-5 production) | % inh. (percentage inhibition of IL-5 production) (IL-5 production)
250 °C | CN(C)Cc1sc(C(c2ccc(Cl)cc2)c2c(Cl)cc(-n3ncc(=O)[nH]c3=O)cc2Cl)nc1-c1ccccc1F (racemic) [Compound 325, (±)-2-[4-[(4-chlorophenyl)[5-[(dimethylamino)methyl]-4-(2-fluorophenyl)-2-thiazolyl]methyl]-3,5-dichlorophenyl]-1,2,4-triazine-3,5(2H,4H)-dione] | 95% | 
128 °C | O=c1cnn(-c2cc(Cl)c(C(c3ccc(Cl)cc3)c3nc(-c4ccccc4)no3)c(Cl)c2)c(=O)[nH]1 (racemic) [Compound 429, (±)-2-[3,5-dichloro-4-[(4-chlorophenyl)(3-phenyl-1,2,4-oxadiazol-5-yl)methyl]phenyl]-1,2,4-triazin-3,5(2H,4H)-dione] | 78% | 
235 °C | O=C(CO)Nc1ccccc1-c1nnc(C(c2ccc(Cl)cc2)c2c(Cl)cc(-n3ncc(=O)[nH]c3=O)cc2Cl)o1 (racemic) [Compound 213, (±)-N-[2-[5-[(4-chlorophenyl)[2,6-dichloro-4-(4,5-dihydro-3,5-dioxo-1,2,4-triazin-2(3H)-yl)phenyl]methyl]-1,3,4-oxadiazol-2-yl]phenyl]-2-hydroxyacetamide] | 32% | 
206 °C | O=C(O)c1sc(C(c2ccc(Cl)cc2)c2c(Cl)cc(-n3ncc(=O)[nH]c3=O)cc2Cl)nc1-c1ccccc1 (racemic) [Compound 299, (±)-2-[(4-chlorophenyl)[2,6-dichloro-4-(4,5-dihydro-3,5-dioxo-1,2,4-triazin-2(3H)-yl)phenyl]-methyl]-4-phenyl-5-thiazolcarboxylic acid] | 38% | 
90 °C | O=c1cnn(-c2ccc(C(c3ccc(Cl)cc3)c3nc(-c4ccccc4)cs3)c(Cl)c2)c(=O)[nH]1 (racemic) [Compound 419, (±)-2-[3-chloro-4-[(4-chlorophenyl)(4-phenyl-2-thiazolyl)methyl]phenyl]-1,2,4-triazine-3,5(2H,4H)-dione] | 5% | 
170 °C | NCc1sc(C(c2ccc(Cl)cc2)c2c(Cl)cc(-n3ncc(=O)[nH]c3=O)cc2Cl)nc1-c1ccccc1 (racemic) [Compound 329, (±)-2-[4-[[5-(aminomethyl)-4-phenyl-2-thiazolyl](4-chlorophenyl)methyl]-3,5-dichlorophenyl]-1,2,4-triazine-3,5(2H,4H)-dione] | 88% | 
150 °C | CN(C)C(=O)c1sc(C(c2ccc(Cl)cc2)c2c(Cl)cc(-n3ncc(=O)[nH]c3=O)cc2Cl)nc1-c1ccccc1 (racemic) [Compound 303, (±)-N,N-dimethyl-2-[(4-chlorophenyl)[2,6-dichloro-4-(4,5-dihydro-3,5-dioxo-1,2,4-triazin-2(3H)-yl)phenyl]methyl]-4-phenylthiazol-5-carboxamide] | 85% | 
 | CN1CCCC(c2nnc(C(c3ccc(Cl)cc3)c3c(Cl)cc(-n4ncc(=O)[nH]c4=O)cc3Cl)o2)C1 (mixture of isomers) [Compound 196] |  | 35%
 | O.O=c1cnn(-c2cc(Cl)c(C(c3ccc(Cl)cc3)c3nnc(-c4ccccc4Cl)o3)c(Cl)c2)c(=O)[nH]1 (racemic) [Compound 163] |  | 90%
 | O=c1cnn(-c2ccc(C(c3ccc(Cl)cc3)c3noc(-c4ccccc4)n3)c(Cl)c2)c(=O)[nH]1 (racemic) [Comp 107] |  | 81%
 | O=c1cnn(-c2cc(Cl)c(C(c3ccc(Cl)cc3)c3csc(-c4ccccc4Cl)n3)c(Cl)c2)c(=O)[nH]1 (racemic) [Compound 367] |  | 74%
 | COCc1sc(C(c2ccc(Cl)cc2)c2c(Cl)cc(-n3ncc(=O)[nH]c3=O)cc2Cl)nc1-c1ccccc1 (racemic) [Comp 278] |  | 97%
 | CN(C)CCN(C)C(=O)Cc1sc(C(c2ccc(Cl)cc2)c2c(Cl)cc(-n3ncc(=O)[nH]c3=O)cc2Cl)nc1-c1ccccc1 (racemic) [Comp 335] |  | 52%
 | O=c1cnn(-c2cc(Cl)c(C(c3ccc(Cl)cc3)c3nc(-c4ccco4)cs3)c(Cl)c2)c(=O)[nH]1 (racemic) [Comp 236] |  | 92%
 | O=c1cnn(-c2cc(Cl)c(C(Sc3nc4ccccc4o3)c3ccc(Cl)cc3)c(Cl)c2)c(=O)[nH]1 (centres unmarked) [Compound 383] |  | 78%
 | O=c1cnn(-c2ccc(C(c3ccc(Cl)cc3)c3nc4ccccc4s3)c(Cl)c2)c(=O)[nH]1 (racemic) [Compound 130, (±)-2-[4-[2-benzothiazolyl-(4-chlorophenyl)methyl]-3-chlorophenyl]-1,2,4-triazine-3,5(2H,4H)-dione] | 70% | 
 | O=c1cnn(-c2cc(Cl)c(C(c3ccc(Cl)cc3)c3nc(-c4cccs4)cs3)c(Cl)c2)c(=O)[nH]1 (racemic) [Comp 31] |  | 93%
 | O=c1cnn(-c2ccc(C(Sc3ncnc4[nH]ncc34)c3ccc(Cl)cc3)c(Cl)c2)c(=O)[nH]1 (racemic) [Compound 74] |  | 69%
 | CCOC(=O)c1csc(C(c2ccc(Cl)cc2)c2c(Cl)cc(-n3ncc(=O)[nH]c3=O)cc2Cl)n1 (racemic) [Comp 27] |  | 64%
 | O=c1cnn(-c2cc(Cl)c(C(c3ccc(Cl)cc3)c3ncc(-c4ccccc4)o3)c(Cl)c2)c(=O)[nH]1 (racemic) [Comp 105] |  | 88%
 | COC(c1ccc(Cl)cc1)(c1nccs1)c1ccc(-n2ncc(=O)[nH]c2=O)cc1Cl (racemic) [Compound 37, (±)-2-[3-chloro-4-[(4-chlorophenyl)-methoxy(2-thiazolyl)methyl]phenyl]-1,2,4-triazine-3,5(2H,4H)-dione] | 61% | 
 | CN1CCC(N(C)Cc2sc(C(c3ccc(Cl)cc3)c3c(Cl)cc(-n4ncc(=O)[nH]c4=O)cc3Cl)nc2-c2ccccc2)CC1 (racemic) [Comp 322] |  | 96%
 | CN(CCc1ccccc1)Cc1sc(C(c2ccc(Cl)cc2)c2c(Cl)cc(-n3ncc(=O)[nH]c3=O)cc2Cl)nc1-c1ccccc1 (racemic) [Comp 332] |  | 86%
 | O=c1cnn(-c2cc(Cl)c(C(c3ccc(Cl)cc3)c3nccs3)c(Cl)c2)c(=O)[nH]1 (racemic) [Compound 39, (±)-2-[3,5-dichloro-4-[(4-chlorophenyl)-2-thiazolylmethyl]-phenyl]-1,2,4-triazine-3,5(2H,4H)-dione] | 68% | 
 | O=c1cnn(-c2cc(Cl)c(C(c3ccc(Cl)cc3)c3nnc(-c4cccs4)o3)c(Cl)c2)c(=O)[nH]1 (racemic) [Compound 166] |  | 87%
 | Cc1ccnc(SC(c2ccc(Cl)cc2)c2ccc(-n3ncc(=O)[nH]c3=O)cc2Cl)n1 (racemic) [Compound 75] |  | 72%
 | O=c1cnn(-c2cc(Cl)c(C(Sc3nccc(NCCO)n3)c3ccc(Cl)cc3)c(Cl)c2)c(=O)[nH]1 (racemic) [Compound 357, (±)-2-[3,5-dichloro-4-[(4-chlorophenyl)[[4-[(2-hydroxyethyl)amino]-2-pyrimidinyl]-thio]methyl]phenyl]-1,2,4-triazine-3,5(2H,4H)-dione] | 69% | 
 | Cc1nc(-c2ccccc2)c(C(c2ccc(Cl)cc2)c2ccc(-n3ncc(=O)[nH]c3=O)cc2Cl)s1 (racemic) [Compound 134] |  | 95%
